Laboratory results from US12655116B2, “Substituted isophthalic acid diamides” (Bayer Aktiengesellschaft, priority 2020, dated 2026).

Legend:
ECHCG [1] = experiment: Pre-emergence herbicidal action against ECHCG; type: in vivo, Echinochloa crus-galli; conditions: 80 g/ha
Method in brief: (§1)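 Visual rating at 3 weeks vs untreated pots; 0–100% scale, 100% = plants died. Treatment: aqueous WP/EC spray onto covering soil, 600–800 l/ha, 0.2% wetter, seeds in sandy loam.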

ABUTH = experiment: Pre-emergence herbicidal action against ABUTH; type: in vivo, Abutilon theophrasti
Method in brief: as §1

AMARE [2] = experiment: Post-emergence herbicidal action against AMARE; type: in vivo, Amaranthus retroflexus; conditions: 20 g/ha, visual assessment about 3 weeks after treatment, 100% = plants have died, 0% = like control plants
Method in brief: (§2)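 Weeds in sandy loam soil received a post-emergence spray at the one-leaf stage. Compounds were applied as WP or EC in water, 600 to 800 l/ha, with 0.2% wetting agent. Activity in % was judged visually after roughly 3 weeks against untreated plants.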

MATIN [3] = experiment: Pre-emergence herbicidal action against MATIN; type: in vivo, Matricaria inodora
Method in brief: as §1

DIGSA [4] = experiment: Post-emergence herbicidal action against DIGSA; type: in vivo, Digitaria sanguinalis
Method in brief: as §2

AMARE [5] = experiment: Pre-emergence herbicidal action against AMARE; type: in vivo, Amaranthus retroflexus
Method in brief: as §1

PHBPU [6] = experiment: Post-emergence herbicidal action against PHBPU; type: in vivo, Pharbitis purpurea; conditions: dosage 20 g/ha
Method in brief: as §2

VIOTR [7] = experiment: Post-emergence herbicidal action against VIOTR; type: in vivo, Viola tricolor; conditions: 20 g/ha
Method in brief: as §2

MATIN [8] = experiment: Post-emergence herbicidal action against MATIN; type: in vivo, Matricaria inodora; conditions: dosage 20 g/ha
Method in brief: as §2

VIOTR [9] = experiment: Pre-emergence herbicidal action against VIOTR; type: in vivo, Viola tricolor
Method in brief: as §1

DIGSA [10] = experiment: Pre-emergence herbicidal action against DIGSA; type: in vivo, Digitaria sanguinalis
Method in brief: as §1

ECHCG [11] = experiment: Post-emergence herbicidal action against ECHCG; type: in vivo, Echinochloa crus-galli; conditions: dosage 20 g/ha
Method in brief: as §2

PHBPU [12] = experiment: Pre-emergence herbicidal action against PHBPU; type: in vivo, Pharbitis purpurea; conditions: dosage 80 g/ha
Description: Seeds of monocotyledonous and dicotyledonous weed plants and crop plants are laid out in sandy loam soil in wood-fiber pots and covered with soil. The compounds of the invention, formulated in the form of wettable powders (WP) or as emulsion concentrates (EC), are then applied to the surface of the covering soil in the form of an aqueous suspension or emulsion at a water application rate equivalent to 600 to 800 l/ha, with addition of 0.2% wetting agent. After the treatment, the pots are placed in a greenhouse and kept under good growth conditions for the trial plants. The damage to the test plants is scored visually after a test period of 3 weeks by comparison with untreated controls (herbicidal activity in percent (%): 100% activity=the plants have died, 0% activity=like control plants). […] The tables below illustrate, in an illustrative manner, the post-emergence herbicidal action of the compounds of the invention, the herbicidal activity being stated in percent.

SETVI = experiment: Pre-emergence herbicidal action against SETVI; type: in vivo, Setaria viridis; conditions: dosage 80 g/ha
Method in brief: as §1

VERPE [13] = experiment: Post-emergence herbicidal action against VERPE; type: in vivo, Veronica persica; conditions: 20 g/ha
Method in brief: as §2

VERPE [14] = experiment: Pre-emergence herbicidal action against VERPE; type: in vivo, Veronica persica
Method in brief: as §1

ALOMY = experiment: Pre-emergence herbicidal action against ALOMY; type: in vivo, Alopecurus myosuroides; conditions: 80 g/ha, pre-emergence, scored visually after 3 weeks vs untreated controls (100% = plants have died, 0% = like control plants)
Method in brief: as §1

[15] = 80 g/ha, scored visually after 3 weeks vs untreated controls (100% = plants have died, 0% = like control plants)
[16] = 20 g/ha, scored visually after 3 weeks vs untreated controls, 100% = plants have died, 0% = like control plants

Row | SMILES | Pre-emergence action against ECHCG in % (ECHCG [1]) [%] | Pre-emergence action against AMARE in % (AMARE [5]; [16]) [%] | Pre-emergence action against AMARE in % (AMARE [5]; [15]) [%] | Pre-emergence action against VIOTR in % (VIOTR [9]; dosage 80 g/ha) [%] | Pre-emergence action against DIGSA in % (DIGSA [10]; dosage 80 g/ha) [%] | Post-emergence action against ECHCG in % (ECHCG [11]) [%] | Pre-emergence action against PHBPU in % (PHBPU [12]) [%] | Pre-emergence action against SETVI in % (SETVI) [%] | Post-emergence action against VERPE in % (VERPE [13]) [%] | Pre-emergence action against VERPE in % (VERPE [14]; dosage 80 g/ha) [%] | also measured
1 | CCn1nnnc1NC(=O)c1ccc(C(F)F)c(C(=O)NC(C)C2CC2)c1Br (stereo not shown) [Example 2-340] | 100 | 100 | 100 | 100 | 100 | 90 | 80 | 100 | 90 | 100 | Pre-emergence action against ABUTH (herbicidal activity) (ABUTH; [15]): 100%; Pre-emergence action against ABUTH (herbicidal activity in percent) (ABUTH; dosage 20 g/ha, scored visually after 3 weeks vs untreated controls, 100% = plants have died, 0% = like control plants): 100%; Post-emergence action at 20 g/ha against AMARE in % (AMARE [2]): 100%; Pre-emergence action against MATIN in % (MATIN [3]; dosage 20 g/ha): 100%; Pre-emergence action against MATIN in % (MATIN [3]; dosage 80 g/ha): 100%; Post-emergence action against DIGSA in % (DIGSA [4]; 5 g/ha): 80%; Post-emergence action against DIGSA (DIGSA [4]; 20 g/ha): 90%; Post-emergence action against PHBPU in % (PHBPU [6]): 80%; Post-emergence action against VIOTR in % (VIOTR [7]): 80%; Post-emergence action against MATIN in % (MATIN [8]): 80%; Pre-emergence action against VIOTR in % (VIOTR [9]; dosage 20 g/ha): 100%; Pre-emergence action against DIGSA in % (DIGSA [10]; dosage 20 g/ha): 100%
2 | CCn1nnnc1NC(=O)c1ccc(C(F)(F)F)c(C(=O)NCC2CCCO2)c1C (stereo not shown) [Example 2-37] | 80 | 90 | 100 | 100 | 100 | 80 | 80 | 100 | 80 | 80 | Pre-emergence action against ALOMY (herbicidal activity) (ALOMY): 90%; Pre-emergence action against VERPE in % (VERPE [14]; dosage 20 g/ha): 80%
